Test results from US10704056B2, “Constitutively active ABA receptor mutants” (The Regents of the University of California, priority 2011, dated 2020).

What was measured:
PYL2 = biological target: T1, PYL2 (Arabidopsis thaliana, UniProt O80992); conditions: cited from earlier work
T1 sequence (O80992 1-190): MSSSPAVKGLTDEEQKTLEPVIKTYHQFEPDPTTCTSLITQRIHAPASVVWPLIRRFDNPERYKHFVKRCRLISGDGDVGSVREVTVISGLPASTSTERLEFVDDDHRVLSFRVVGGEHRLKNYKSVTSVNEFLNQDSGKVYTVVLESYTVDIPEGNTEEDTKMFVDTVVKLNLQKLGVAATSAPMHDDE

PYL5 = biological target: T2, PYL5 (Arabidopsis thaliana, UniProt Q9FLB1); conditions: cited from earlier work
T2 sequence (Q9FLB1 1-203): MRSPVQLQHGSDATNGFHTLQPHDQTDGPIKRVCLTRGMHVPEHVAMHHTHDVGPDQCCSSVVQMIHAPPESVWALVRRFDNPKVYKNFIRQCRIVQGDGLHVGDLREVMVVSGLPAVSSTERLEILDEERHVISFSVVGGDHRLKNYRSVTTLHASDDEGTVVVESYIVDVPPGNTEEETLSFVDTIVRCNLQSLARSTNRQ

[1] = tested on: ABA-responsive gene transcription; conditions: in vivo; cited from earlier work
PYR1 [2] = biological target: T3, PYR1 (Arabidopsis thaliana, UniProt O49686); conditions: cited from earlier work
T3 sequence (O49686 1-191): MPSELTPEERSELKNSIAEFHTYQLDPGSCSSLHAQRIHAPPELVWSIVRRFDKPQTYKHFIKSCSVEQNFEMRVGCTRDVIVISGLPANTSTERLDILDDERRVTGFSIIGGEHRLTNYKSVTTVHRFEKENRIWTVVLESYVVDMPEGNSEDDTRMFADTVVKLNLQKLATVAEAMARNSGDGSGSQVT

PYL1 = biological target: T4, PYL1 (Arabidopsis thaliana, UniProt Q8VZS8); conditions: cited from earlier work
T4 sequence (Q8VZS8 1-221): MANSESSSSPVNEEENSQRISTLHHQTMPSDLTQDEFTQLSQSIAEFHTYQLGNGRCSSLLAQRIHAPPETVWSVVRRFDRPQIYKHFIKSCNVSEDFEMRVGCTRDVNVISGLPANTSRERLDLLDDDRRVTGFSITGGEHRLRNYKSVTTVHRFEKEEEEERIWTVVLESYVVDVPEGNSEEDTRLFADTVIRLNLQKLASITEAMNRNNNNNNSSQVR

HAB1 = biological target: T5, HAB1 (Arabidopsis thaliana, UniProt Q9CAJ0); assay: Yeast two-hybrid PYR1 mutant-HAB1 interaction assay (X-gal staining) in the absence of ABA; type: cell-based; conditions: no ABA
T5 construct: expressed in transfected cells; host or cells: S. cerevisiae strain Y190
T5 sequence (Q9CAJ0 1-511): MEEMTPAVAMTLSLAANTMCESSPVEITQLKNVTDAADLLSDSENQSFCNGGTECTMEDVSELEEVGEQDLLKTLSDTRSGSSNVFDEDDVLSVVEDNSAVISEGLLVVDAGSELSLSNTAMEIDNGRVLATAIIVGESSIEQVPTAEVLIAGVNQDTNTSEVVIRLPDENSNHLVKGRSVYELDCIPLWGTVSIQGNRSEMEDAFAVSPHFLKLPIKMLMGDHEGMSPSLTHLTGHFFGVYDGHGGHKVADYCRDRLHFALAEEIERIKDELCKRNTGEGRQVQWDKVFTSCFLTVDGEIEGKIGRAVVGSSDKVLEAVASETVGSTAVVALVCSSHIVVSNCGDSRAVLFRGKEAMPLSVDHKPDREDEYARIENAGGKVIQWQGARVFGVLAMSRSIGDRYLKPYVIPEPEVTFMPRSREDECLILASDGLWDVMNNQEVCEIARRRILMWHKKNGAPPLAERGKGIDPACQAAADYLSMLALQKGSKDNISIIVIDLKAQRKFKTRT
Text: To define sites that can be mutated to improve interactions between PYR/PYL receptors and PP2Cs, we conducted saturation mutagenesis on 39 residues in PYR1 that normally contact ABA (i.e., are within the ligand-binding pocket of PYR1) and/or PP2Cs (i.e., are within the PP2C binding interface). All 741 single-mutant variants possible at these functionally critical locations were constructed and then assayed for PP2C interactions using a yeast two-hybrid based assay. Saturation mutagenesis is a method that involves the construction of all possible amino acid variants at a given site (i.e., the generation of all 19 substitution mutants per site). We focused mutagenesis efforts on PYR1 because it is a well-characterized member of the PYR/PYL receptor family and has extensive structural data on which to guide mutagenesis studies, although it should be noted that the sites targeted display high sequence conservation among the PYR/PYL receptors (FIG. 1). Moreover, PYR1 is well suited for functional studies because its low basal activity allows its activation status to be studied using a yeast-based two-hybrid assay in which wild-type PYR1 will only bind to the PP2C HAB1 (or other PP2Cs) when the appropriate yeast cells are grown in the presence of ABA. […]

PYR1 [3] = biological target: T6, PYR1 (Arabidopsis thaliana, UniProt O49686); assay: Yeast two-hybrid wild-type PYR1-HAB1 interaction with added ABA; type: cell-based; conditions: wild-type PYR1, 10 μM ABA
T6 construct: expressed in transfected cells; host or cells: S. cerevisiae strain Y190
T6 sequence (O49686 1-191): T3 sequence (O49686 1-191)
T6 sequence (Q9CAJ0 23-511 partner): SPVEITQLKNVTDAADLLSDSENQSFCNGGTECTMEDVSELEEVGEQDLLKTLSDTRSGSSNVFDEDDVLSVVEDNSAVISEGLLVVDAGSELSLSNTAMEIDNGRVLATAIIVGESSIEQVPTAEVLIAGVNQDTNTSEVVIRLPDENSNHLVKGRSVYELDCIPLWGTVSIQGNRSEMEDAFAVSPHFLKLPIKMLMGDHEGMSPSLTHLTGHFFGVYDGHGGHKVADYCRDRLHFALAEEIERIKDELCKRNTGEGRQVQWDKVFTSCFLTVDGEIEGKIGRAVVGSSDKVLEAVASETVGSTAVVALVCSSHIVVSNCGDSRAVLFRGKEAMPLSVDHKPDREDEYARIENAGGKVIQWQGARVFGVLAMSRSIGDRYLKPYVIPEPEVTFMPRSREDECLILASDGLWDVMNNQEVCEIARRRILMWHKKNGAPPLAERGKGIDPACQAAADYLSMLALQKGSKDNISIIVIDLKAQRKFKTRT
Experimental: 29 of 741 PYR1 mutants constructed, located in 10 different residues, increase the interaction between PYR1 and HAB1 in the absence of ABA, as measured using the yeast two hybrid assay (upper left panel). […] Each graph includes control wild-type PYR1 protein tested in the absence (diamonds) and presence (squares) of 10 μM ABA. Specific mutant proteins (triangles) were tested in the absence of ABA. […] Plotted in each graph is PP2C activity, expressed as % of control, which is the PP2C activity measured in the absence of ABA or receptor protein.
To define sites that can be mutated to improve interactions between PYR/PYL receptors and PP2Cs, we conducted saturation mutagenesis on 39 residues in PYR1 that normally contact ABA (i.e., are within the ligand-binding pocket of PYR1) and/or PP2Cs (i.e., are within the PP2C binding interface). All 741 single-mutant variants possible at these functionally critical locations were constructed and then assayed for PP2C interactions using a yeast two-hybrid based assay. Saturation mutagenesis is a method that involves the construction of all possible amino acid variants at a given site (i.e., the generation of all 19 substitution mutants per site). […]

aba2-1 mutant seeds = assay: Germination of aba2-1 background seeds on paclobutrazol or NaCl; type: in vivo, Arabidopsis; conditions: 35S-driven transgene, germination 72 hours
Text: As a further test of the ability of PYL2^CA3 to activate ABA signaling in vivo, we examined the ability of this allele to revert phenotypes caused by ABA deficiency, reasoning that effective activation of the ABA pathway should suppress phenotypes observed in the aba2 mutant. […] To test this, we examined the germination of various genotypes on paclobutrazol, an inhibitor of GA biosynthesis. Wild-type seed germination is blocked by paclobutrazol treatment but aba2 mutants germinate due to defects in ABA-induced seed dormancy. We also examined the germination of various genotypes in the presence of NaCl, which, like paclobutrazole, inhibits seed germination in an ABA- and aba2-dependent manner (Gonzalez-Guzman M. et al. (2002) Plant Cell 14(8):1833-1846; Leon-Kloosterziel K M, et al. (1996) Plant J 10 (4):655-661). […] Thus, expression of PYL2^CA3 in developing seeds is sufficient to activate an ABA-dependent physiological process despite the depleted ABA levels present in the aba2 background.
Germination tests on paclobutrazol (Wako Chemicals, Japan) and NaCl were conducted as following. Columbia, aba2-1, aba2-1; 35S::GFP-PYL2 and aba2-1; 35S::GFP-PYL2″^3 seeds were surface sterilized and plated onto ⅓ MS agar media containing 25, 50 or 100 μM paclobutrazol or 0, 50, 200, 250 mM NaCl. Control wells contained ⅓ MS agar and 0.1% DMSO, the carrier solvent for paclobutrazol. The seeds were stratified for four days in darkness and then transferred to continuous illumination at room temperature (23° C.). Germination was assayed after 72 hours; seeds showing radicals at least ½ seed length or greater were scored as positive. Each experiment was performed in triplicate; experiments were performed on seeds that were ˜6-months post-harvest.

Columbia seeds = assay: Seed dormancy / germination assay of 35S-driven transgenic lines, stratified vs unstratified; type: in vivo, Arabidopsis; conditions: 35S-driven overexpression in wild-type Columbia background
Experimental: To investigate the effects of the PYL2^CA3 allele, we performed a number of physiological assays on wild-type and aba2-1 genotypes. Columbia (Col), 35S::PYL2, and 35S::PYL2^CA3 seed samples were divided into two portions; one portion was stratified on ⅓ MS plates for 6 days at 4° C. and the second portion was plated six days later ⅓ MS plates. Both samples were the transferred to room temperature (23° C.) and incubated in darkness. […] Each experiment was performed in triplicate and each point plotted represents the average of tests conducted using 40 to 70 seeds. […] Thus, overexpression of PYL2^CA3 activates the ABA-regulated seed dormancy pathway.
In order to assay dormancy of seeds for Columbia, 35S::GFP-PYL2, and 35S::GFP-PYL2^CA3 were divided into two portions and surface sterilized using chlorine gas (prepared in situ using bleach and HCl). One portion was stratified on ⅓ MS agar plates for 6 days at 4° C. in darkness and the second portion, which was maintained at room temperature, was seeded six days later on the ⅓ MS agar plates; both samples were transferred to a 23° C. light-tight growth chamber and germination scored at 24 hour periods. The homozygous 35S::GFP-PYL2 and 35S::GFP-[…] seeds used in these experiments were ˜5- and ˜6-months post-harvest respectively at the time of the experiment shown in FIG. 12.

O=S(=O)(NCc1ccccn1)c1ccc(Br)c2ccccc12 [pyrabactin]
activity on PYL2 (PYL2): weak partial-agonist/antagonist activity | activity on PYL5 (PYL5): weak partial-agonist/antagonist activity | ABA-responsive gene transcription in seeds [1]: essentially activates the full complement of ABA-responsive gene transcription in seeds | agonist activity on PYR1 (PYR1 [2]): strong agonist activity | agonist activity on PYL1 (PYL1): strong agonist activity

PYR1: wild-type Arabidopsis ABA receptor PYR1 (SEQ ID NO:1)
PYR1-HAB1 interaction in the absence of added ABA (HAB1): does not bind HAB1

CC1=CC(=O)CC(C)(C)[C@@]1(O)/C=C/C(C)=C\C(=O)O [ABA, Abscisic acid]
interaction between PYR1 and HAB1 (PYR1 [3]): promotes a strong interaction

B1: PYL2: wild-type ABA receptor PYL2 (SEQ ID NO:3), overexpressed as control (protein, listed as Arabidopsis thaliana)
chain: T1 sequence (O80992 1-190)
modifications: thale cress PYR/PYL receptor, abscisic acid receptor PYL2, PYR1-like protein 2 (PYL2), ABI1-binding protein 6 (ABIP6), regulatory components of ABA receptor 14 (RCAR14), Bet v I allergen family protein, At2g26040, T19L18.15
NaCl resistance of aba2 mutant seed germination (aba2-1 mutant seeds): unable to suppress | paclobutrazol resistance of aba2 mutant seed germination (aba2-1 mutant seeds): unable to suppress | seed hyperdormancy (stratification dependent germination) (Columbia seeds): not
